In patent US12655116B2, “Substituted isophthalic acid diamides” (Bayer Aktiengesellschaft, priority 2020, dated 2026):

Assays:
[1] = system: ABUTH; test: Pre-emergence herbicidal action against ABUTH; assay type: in vivo, Abutilon theophrasti; conditions: Abutilon theophrasti, 504 h; for pest or weed control at 80 g/ha: scored visually after 3 weeks vs untreated controls (100% = plants have died, 0% = like control plants); for pest or weed control at 20 g/ha: dosage 20 g/ha, scored visually after 3 weeks vs untreated controls, 100% = plants have died, 0% = like control plants, read-out: Pre-emergence action against ABUTH (herbicidal activity in percent)
Summary of the method: (§1)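 Greenhouse pots of sandy loam held seeds covered with soil, onto which the compound was applied before emergence. An aqueous suspension or emulsion of WP or EC was used at 600 to 800 l/ha with 0.2% wetting agent. Percent damage was judged visually at 3 weeks.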

[2] = system: ALOMY; test: Pre-emergence herbicidal action against ALOMY; assay type: in vivo, Alopecurus myosuroides; conditions: Alopecurus myosuroides, 504 h, pre-emergence; for pest or weed control at 80 g/ha: scored visually after 3 weeks vs untreated controls (100% = plants have died, 0% = like control plants)
Summary of the method: as §1

[3] = system: AMARE; test: Pre-emergence herbicidal action against AMARE; assay type: in vivo, Amaranthus retroflexus; conditions: Amaranthus retroflexus, 504 h, scored visually after 3 weeks vs untreated controls, 100% = plants have died, 0% = like control plants
Summary of the method: as §1

[4] = system: AVEFA; test: Pre-emergence herbicidal action against AVEFA; assay type: in vivo, Avena fatua; conditions: Avena fatua, 504 h, pre-emergence
Summary of the method: as §1

[5] = system: ECHCG; test: Pre-emergence herbicidal action against ECHCG; assay type: in vivo, Echinochloa crus-galli; conditions: Echinochloa crus-galli, 504 h, 80 g/ha
Summary of the method: as §1

[6] = system: HORMU; test: Pre-emergence herbicidal action against HORMU; assay type: in vivo, Hordeum murinum; conditions: Hordeum murinum, 504 h; 80 g/ha, pre-emergence
Summary of the method: as §1

[7] = system: MATIN; test: Pre-emergence herbicidal action against MATIN; assay type: in vivo, Matricaria inodora; conditions: Tripleurospermum inodorum, 504 h; for pest or weed control at 20 g/ha: dosage 20 g/ha; for pest or weed control at 80 g/ha: dosage 80 g/ha
Summary of the method: as §1

[8] = system: PHBPU; test: Pre-emergence herbicidal action against PHBPU; assay type: in vivo, Pharbitis purpurea; conditions: Ipomoea purpurea, 504 h, dosage 80 g/ha
Summary of the method: as §1

[9] = system: SETVI; test: Pre-emergence herbicidal action against SETVI; assay type: in vivo, Setaria viridis; conditions: Setaria viridis, 504 h; for pest or weed control at 20 g/ha: dosage 20 g/ha; for pest or weed control at 80 g/ha: dosage 80 g/ha
Summary of the method: as §1

[10] = system: STEME; test: Pre-emergence herbicidal action against STEME; assay type: in vivo, Stellaria media; conditions: Stellaria media, 504 h, dosage 80 g/ha
Summary of the method: as §1

[11] = system: VERPE; test: Pre-emergence herbicidal action against VERPE; assay type: in vivo, Veronica persica; conditions: Veronica persica, 504 h; for pest or weed control at 20 g/ha: dosage 20 g/ha; for pest or weed control at 80 g/ha: dosage 80 g/ha
Summary of the method: as §1

[12] = system: VIOTR; test: Pre-emergence herbicidal action against VIOTR; assay type: in vivo, Viola tricolor; conditions: Viola tricolor, 504 h; for pest or weed control at 80 g/ha: dosage 80 g/ha
Summary of the method: as §1

[13] = system: DIGSA; test: Pre-emergence herbicidal action against DIGSA; assay type: in vivo, Digitaria sanguinalis; conditions: Digitaria sanguinalis, 504 h; for pest or weed control at 20 g/ha: dosage 20 g/ha; for pest or weed control at 80 g/ha: dosage 80 g/ha
Summary of the method: as §1

[14] = system: ABUTH; test: Post-emergence herbicidal action against ABUTH; assay type: in vivo, Abutilon theophrasti; conditions: Abutilon theophrasti, 504 h, visual assessment about 3 weeks after treatment vs untreated controls; for pest or weed control at 5 g/ha: dosage 5 g/ha; for pest or weed control at 20 g/ha: dosage 20 g/ha
Summary of the method: (§2)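 Foliar application at one-leaf stage of formulated test compounds, aqueous spray at 600–800 l/ha with 0.2% wetting agent. Greenhouse, optimal conditions, ~3 weeks; damage scored visually in % relative to untreated plants.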

[15] = system: ALOMY; test: Post-emergence herbicidal action against ALOMY; assay type: in vivo, Alopecurus myosuroides; conditions: Alopecurus myosuroides, 504 h, visual assessment about 3 weeks after treatment vs untreated controls; for pest or weed control at 20 g/ha: dosage 20 g/ha
Summary of the method: as §2

[16] = system: AMARE; test: Post-emergence herbicidal action against AMARE; assay type: in vivo, Amaranthus retroflexus; conditions: Amaranthus retroflexus, 504 h, 20 g/ha, visual assessment about 3 weeks after treatment, 100% = plants have died, 0% = like control plants
Summary of the method: as §2

[17] = system: ECHCG; test: Post-emergence herbicidal action against ECHCG; assay type: in vivo, Echinochloa crus-galli; conditions: Echinochloa crus-galli, 504 h; for pest or weed control at 20 g/ha: dosage 20 g/ha
Summary of the method: as §2

[18] = system: LOLRI; test: Post-emergence herbicidal action against LOLRI; assay type: in vivo, Lolium rigidum; conditions: Lolium rigidum, 504 h, dosage 20 g/ha
Protocol: Seeds of monocotyledonous and dicotyledonous weed and crop plants are laid out in sandy loam soil in wood-fiber pots, covered with soil and cultivated in a greenhouse under good growth conditions. 2 to 3 weeks after sowing, the test plants are treated at the one-leaf stage. The compounds of the invention, formulated in the form of wettable powders (WP) or as emulsion concentrates (EC), are then sprayed onto the green parts of the plants in the form of an aqueous suspension or emulsion at a water application rate equivalent to 600 to 800 l/ha, with addition of 0.2% wetting agent. After the test plants have been left to stand in the greenhouse under optimal growth conditions for about 3 weeks, the action of the preparations is assessed visually in comparison to untreated controls (herbicidal action in percent (%): 100% activity=the plants have died, 0% activity=like control plants). […] The tables below illustrate, in an illustrative manner, the post-emergence herbicidal action of the compounds of the invention, the herbicidal activity being stated in percent.

[19] = system: PHBPU; test: Post-emergence herbicidal action against PHBPU; assay type: in vivo, Pharbitis purpurea; conditions: Ipomoea purpurea, 504 h; for pest or weed control at 20 g/ha: dosage 20 g/ha
Summary of the method: as §2

[20] = system: SETVI; test: Post-emergence herbicidal action against SETVI; assay type: in vivo, Setaria viridis; conditions: Setaria viridis, 504 h; for pest or weed control at 5 g/ha: dosage 5 g/ha; for pest or weed control at 20 g/ha: dosage 20 g/ha
Summary of the method: as §2

[21] = system: STEME; test: Post-emergence herbicidal action against STEME; assay type: in vivo, Stellaria media; conditions: Stellaria media, 504 h, 20 g/ha
Summary of the method: as §2

[22] = system: VERPE; test: Post-emergence herbicidal action against VERPE; assay type: in vivo, Veronica persica; conditions: Veronica persica, 504 h
Summary of the method: as §2

[23] = system: VIOTR; test: Post-emergence herbicidal action against VIOTR; assay type: in vivo, Viola tricolor; conditions: Viola tricolor, 504 h
Summary of the method: as §2

[24] = system: DIGSA; test: Post-emergence herbicidal action against DIGSA; assay type: in vivo, Digitaria sanguinalis; conditions: Digitaria sanguinalis, 504 h, 20 g/ha
Summary of the method: as §2

[25] = system: LOLRI; test: Pre-emergence herbicidal action against LOLRI; assay type: in vivo, Lolium rigidum; conditions: Lolium rigidum, 504 h, 80 g/ha
Summary of the method: as §1

[26] = system: POLCO; test: Pre-emergence herbicidal action against POLCO; assay type: in vivo, Polygonum convolvulus; conditions: Fallopia convolvulus, 504 h, dosage 80 g/ha
Summary of the method: as §1

[27] = system: AVEFA; test: Post-emergence herbicidal action against AVEFA; assay type: in vivo, Avena fatua; conditions: Avena fatua, 504 h, visual assessment about 3 weeks after treatment, 100% = plants have died, 0% = like control plants
Summary of the method: as §2

[28] = system: MATIN; test: Post-emergence herbicidal action against MATIN; assay type: in vivo, Matricaria inodora; conditions: Tripleurospermum inodorum, 504 h
Summary of the method: as §2

[29] = 20 g/ha, scored visually after 3 weeks, 100% = plants have died, 0% = like control plants

Q: Which results are given for `Cn1nnnc1NC(=O)c1ccc(C(F)(F)F)c(C(=O)NC2CC2)c1Br` [Example 1-209]?
A: pest or weed control at 80 g/ha [1]: 100%; pest or weed control at 20 g/ha [1]: 100%; pest or weed control at 80 g/ha [2]: 80%; pest or weed control at 20 g/ha [3]: 100%; pest or weed control at 80 g/ha [3]: 100%; pest or weed control at 80 g/ha [4]: 100%; pest or weed control at 80 g/ha [5]: 90%; pest or weed control at 80 g/ha [6]: 80%; pest or weed control at 20 g/ha [7]: 80%; pest or weed control at 80 g/ha [7]: 100%; pest or weed control at 80 g/ha [8]: 80%; pest or weed control at 20 g/ha [9]: 90%; pest or weed control at 80 g/ha [9]: 100%; pest or weed control at 80 g/ha [10]: 90%; pest or weed control at 20 g/ha [11]: 90%; pest or weed control at 80 g/ha [11]: 100%; pest or weed control at 80 g/ha [12]: 100%; pest or weed control at 20 g/ha [13]: 100%; pest or weed control at 80 g/ha [13]: 100%; pest or weed control at 5 g/ha [14]: 90%; pest or weed control at 20 g/ha [14]: 100%; pest or weed control at 20 g/ha [15]: 80%; pest or weed control at 20 g/ha [16]: 100%; pest or weed control at 20 g/ha [17]: 90%; pest or weed control at 20 g/ha [18]: 80%; pest or weed control at 20 g/ha [19]: 90%; pest or weed control at 5 g/ha [20]: 100%; pest or weed control at 20 g/ha [20]: 100%; pest or weed control at 20 g/ha [21]: 90%; pest or weed control at 20 g/ha [22]: 80%; pest or weed control at 5 g/ha ([23]; 5 g/ha): 100%; pest or weed control at 20 g/ha ([23]; 20 g/ha): 100%; pest or weed control at 20 g/ha [24]: 90%

Q: `CCCNC(=O)c1c(C(F)(F)F)ccc(C(=O)Nc2nnnn2CC)c1C` [Example 2-32] was tested. Which pest or weed control at 80 g/ha [1] did it give?
A: 100%

Q: What about the pest or weed control at 20 g/ha [1] of the same compound?
A: 100%

Q: What about the pest or weed control at 80 g/ha [2] of the same compound?
A: 100%

Q: What about the pest or weed control at 20 g/ha [2, 29] of the same compound?
A: 90%

Q: And the pest or weed control at 20 g/ha [3]?
A: 100%

Q: What about the pest or weed control at 80 g/ha [3] of the same compound?
A: 100%

Q: And the pest or weed control at 80 g/ha [4]?
A: 90%

Q: What about the pest or weed control at 20 g/ha [4, 29] of the same compound?
A: 90%

Q: What about the pest or weed control at 80 g/ha [5] of the same compound?
A: 100%

Q: And the pest or weed control at 80 g/ha [25]?
A: 90%

Q: And the pest or weed control at 20 g/ha [7]?
A: 100%

Q: And the pest or weed control at 80 g/ha [7]?
A: 100%

Q: And the pest or weed control at 80 g/ha [8]?
A: 90%

Q: And the pest or weed control at 80 g/ha [26]?
A: 90%

Q: And the pest or weed control at 20 g/ha [9]?
A: 100%

Q: What about the pest or weed control at 80 g/ha [9] of the same compound?
A: 100%

Q: What about the pest or weed control at 20 g/ha [11] of the same compound?
A: 90%

Q: And the pest or weed control at 80 g/ha [11]?
A: 100%

Q: And the pest or weed control at 20 g/ha ([12]; dosage 20 g/ha)?
A: 100%

Q: What about the pest or weed control at 80 g/ha [12] of the same compound?
A: 100%

Q: What about the pest or weed control at 20 g/ha [13] of the same compound?
A: 100%

Q: What about the pest or weed control at 80 g/ha [13] of the same compound?
A: 100%

Q: What about the pest or weed control at 5 g/ha [14] of the same compound?
A: 90%

Q: What about the pest or weed control at 20 g/ha [14] of the same compound?
A: 90%

Q: And the pest or weed control at 5 g/ha ([15]; dosage 5 g/ha)?
A: 90%

Q: And the pest or weed control at 20 g/ha [15]?
A: 100%

Q: And the pest or weed control at 20 g/ha [16]?
A: 100%

Q: And the pest or weed control at 5 g/ha ([27]; 5 g/ha)?
A: 90%

Q: And the pest or weed control at 20 g/ha ([27]; 20 g/ha)?
A: 100%

Q: What about the pest or weed control at 5 g/ha ([17]; dosage 5 g/ha) of the same compound?
A: 80%

Q: And the pest or weed control at 20 g/ha [17]?
A: 90%

Q: And the pest or weed control at 20 g/ha [18]?
A: 80%

Q: And the pest or weed control at 5 g/ha ([28]; dosage 5 g/ha)?
A: 90%

Q: What about the pest or weed control at 20 g/ha ([28]; dosage 20 g/ha) of the same compound?
A: 90%

Q: What about the pest or weed control at 5 g/ha ([19]; dosage 5 g/ha) of the same compound?
A: 80%

Q: And the pest or weed control at 20 g/ha [19]?
A: 90%

Q: And the pest or weed control at 5 g/ha [20]?
A: 80%

Q: What about the pest or weed control at 20 g/ha [20] of the same compound?
A: 100%

Q: What about the pest or weed control at 5 g/ha ([22]; 5 g/ha) of the same compound?
A: 90%

Q: What about the pest or weed control at 20 g/ha [22] of the same compound?
A: 90%

Q: And the pest or weed control at 20 g/ha [24]?
A: 90%
